Laboratory results taken from patent US11839614B2, “Methods for treating or mitigating cardiotoxicity characterized by inhibition of adenosine A2 signaling and/or adenosine A2 receptor expression” (INTRA-CELLULAR THERAPIES, INC., priority 2018, dated 2023).

Key:
r-hPDE1A = molecular target: T1, r-hPDE1A (Homo sapiens, UniProt P54750); assay: Ki for full-length recombinant PDE1A; type: biochemical
T1 construct: Its Kis for full-length recombinant r-hPDE1A, 1B, and 1C are 34, 380, and 37 pM
Source text: Additional pharmaceuticals used in the following examples are dobutamine (Hospira Inc., Lake Forest, Ill.), esmolol HCl (Mylan, Rockford, Ill.), MRS1754 (Tocris Bioscience, Bristol, UK), and Hespan (6% Hetastarch in 0.9% NaCl B. Braun Medical Inc., Bethlehem, Pa.).

[1] = Plasma Compound 1 levels in dogs (LC/MS-MS); type: in vivo; conditions: dog; for concentration at 10 min / concentration at 30 min / concentration at 120 min: mongrel, plasma; for concentration at 10 min / concentration at 30 min: iv; for concentration at 120 min: po, 10 mg, 10 mg P.O., 120 min post dose
Method: Dogs are studied in the conscious state before and after inducing dilated cardiomyopathy by tachypacing for two weeks at 200 bpm.
The study employs two doses, 0.01 and 0.1 mg/kg, the latter administered 30 minutes after the first.
Intravenous blood is placed in K2EDTA tubes, centrifuged at 2,000 g for 15 min, plasma decanted, and stored frozen. Compound 1 levels are assessed by a rapid, sensitive liquid chromatography-tandem mass spectrometric (LC/MS-MS) method.
The mobile phase consists of a gradient of 60-100% methanol over 4.5 minutes in 5 mM ammonium bicarbonate with 0.2% NH3H2O, pumped at a flow rate of 0.8 mL/min. Analysis time is 4.5 min and both the analyte and internal standard eluted around 2.0 min. Multiple reactions monitoring (MRM) mode is used to detect Compound 1. MS is operated in the positive ion detection mode. […] Calibration curves are linear from 0.02-500 ng/mL in dog plasma sample matrices. The lower limit of quantification (LLOQ) for plasma was 0.02 ng/mL.

[2] = 0.1 mg/kg, plasma Compound 1 concentration, normal dogs, 0.1 mg/kg i.v.
[3] = 0.1 mg/kg, plasma Compound 1 level, failing dogs, IV administration

T1 sequence (P54750 whole entry): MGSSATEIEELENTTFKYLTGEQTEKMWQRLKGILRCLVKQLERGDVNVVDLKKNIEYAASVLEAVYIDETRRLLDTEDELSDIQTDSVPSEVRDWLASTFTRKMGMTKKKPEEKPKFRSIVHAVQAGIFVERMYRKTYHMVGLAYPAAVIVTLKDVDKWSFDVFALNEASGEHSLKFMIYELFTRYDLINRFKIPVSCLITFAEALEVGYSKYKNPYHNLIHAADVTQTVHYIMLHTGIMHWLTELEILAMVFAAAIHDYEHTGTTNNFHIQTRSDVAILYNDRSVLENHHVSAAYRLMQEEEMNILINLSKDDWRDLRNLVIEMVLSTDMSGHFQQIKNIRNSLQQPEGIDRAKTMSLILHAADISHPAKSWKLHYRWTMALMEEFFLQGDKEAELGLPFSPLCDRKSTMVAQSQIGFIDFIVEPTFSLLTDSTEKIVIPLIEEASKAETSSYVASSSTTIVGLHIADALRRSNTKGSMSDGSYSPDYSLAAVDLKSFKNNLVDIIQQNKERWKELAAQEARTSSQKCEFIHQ

For `CN1C(=O)c2c(nn(Cc3ccc(-c4cccc(F)n4)cc3)c2Nc2ccccc2)N2C1=N[C@@H]1CCC[C@@H]12` [Compound 1, (6aR,9aS)-2-(4-(6-fluoropyridin-2-yl)benzyl)-5-methyl-3-(phenyl-amino)-5,6a,7,8,9,9a-hexahydrocyclopenta-[4,5]imidazo[1,2-a]pyrazolo[4,3-e]pyrimidin-4-(2H)-one monophosphate], the Ki (r-hPDE1A) was 0.034 nM, the “therapeutic levels (plasma)” value ([1]; in vivo) was 100 to 300 ng/mL and the concentration at 10 min ([1]; 0.01 mg/kg, plasma Compound 1 concentration, dogs, 0.01 mg/kg i.v.) was 23.6 ± 8.6 ng/mL. It also gave a concentration at 10 min [1, 2] of 211 ± 60.7 ng/mL, a concentration at 30 min [1, 2] of 94.5 ± 21.2 ng/mL and a concentration at 10 min [1, 3] of 441 ± 92.5 ng/mL. For the same compound, the concentration at 30 min [1, 3] was 185 ± 28.9 ng/mL, the concentration at 120 min ([1]; plasma Compound 1 concentration, HF dogs) was 178 ± 100 ng/mL and the concentration at 120 min ([1]; plasma Compound 1 concentration, normal dogs) was 104 ± 8.5 ng/mL.
